Data: US4728650A, “3,4-dihydrobenzopyran derivatives and medicinal uses thereof” (Kuraray Co., Ltd., priority 1985, dated 1988)

How the values were obtained:
[1] = Hydrochloric acid-ethanol-induced ulcer in rats; format: in vivo, Wistar rats (male)
Procedure: Male Wistar rats (body weights, 170-210 g) were used in groups of 6 to 8 animals. Indomethacin, 20 mg/kg body weight, was injected subcutaneously to rats which had been deprived of food for 24 hours. After 7 hours, the stomach was excised under ether anesthesia. A 10% aqueous solution of formaldehyde was infused into the stomach until the stomach was inflated and, then, the stomach was immersed in a 10% aqueous solution of formaldehyde for 10 minutes for fixation of the tissue. After fixation, an incision was made along the greater curvature and the length of ulcers occurring in the glandular portion of the stomach was measured. The total length of ulcers occurring in a rat was taken as an ulcer index. Each test compound was orally administered, as suspended in a gum arabic solution in concentration of 5%, to rats 10 minutes before subcutaneous injection of indomethacin. Male Wistar rats (body weights, 160-190 g) were used in groups of 6 to 8 animals. One milliliter of a 60% aqueous solution of ethanol containing 150 mM hydrochloric acid was administered orally to rats which had been deprived of food for 24 hours. After one hour, the stomach was excised under ether anesthesia. In a manner similar to that described in study for indomethacin-induced ulcer, the ulcer index was determined. Each test compound was orally administered, as suspended in a gum arabic solution in concentration of 5%, to rats 1 hour before administration of hydrochloric acid-ethanol.

[2] = Expectorant action: tracheal secretion of fluorescein sodium in rats; format: in vivo, Wistar rats (male); conditions: Table 15; 50 mg/kg oral; control 5.20 ± 0.78
Procedure: Male Wistar rats (body weights, 280-320 g) were used in groups of 7 animals. Each test compound was orally administered in dose of 50 mg/kg body weight to rats. Immediately after administration, 0.3 ml/100 g (body weight of rat) of a 1% aqueous solution of fluorescein sodium was injected into the caudal vein. One hour after administration of the test compound, pentobarbital sodium 100 mg/kg (body weight of rat) was injected intraperitoneally so that deep anesthesia might cause the rat to die. Then, the trachea was exposed and an incision was made in the trachea. A sonde was inserted thereinto and ligation was made. To the sonde was connected a syringe containing 10 ml of a 5% solution of sodium hydrogen carbonate kept at 37° C. and 4 ml of the solution of sodium hydrogen carbonate was injected into the lung. After 5 minutes, the fluid in the lung was removed. After this procedure of injection and removal was repeated three times, the fluid removed from the lung was filtered and the filtrate was made up with water to make 20 ml. The intensity of fluroescence was determined at the excitation wave length of 491 nm and the fluorescence wave length of 510 nm using a spectrophotometer (HITACHI model 650-10, Hitachi, Ltd.). The amount of fluorescein sodium secreted into the trachea was estimated from the intensity of fluorescence. Each test compound was administered as suspended in a gum arabic solution in concentration of 5%.

[3] = Rattus norvegicus, po, 1 h, Table 7, 25 mg/kg p.o.
[4] = Table 5, 25 mg/kg p.o., control 11.09 ± 1.49
[5] = Table 6, 25 mg/kg p.o., control 9.69 ± 1.68
[6] = Rattus norvegicus, po, 1 h, Table 7, 12.5 mg/kg p.o.
[7] = Rattus norvegicus, po, 1 h, Table 7, 50 mg/kg p.o.
[8] = Table 5, 50 mg/kg p.o., control 11.09 ± 1.49
[9] = Rattus norvegicus, po, 1 h, Table 8, 50 mg/kg p.o.
[10] = Table 8, 50 mg/kg p.o., control 9.69 ± 1.68
[11] = Rattus norvegicus, po, 1 h, Table 12, 25 mg/kg p.o.
[12] = Rattus norvegicus, po, 1 h, Table 12, 50 mg/kg p.o.
[13] = Rattus norvegicus, po, 1 h, Table 12, 100 mg/kg p.o.
[14] = Table 12, 25 mg/kg p.o., control 9.93 ± 0.91
[15] = Table 12, 50 mg/kg p.o., control 9.93 ± 0.91
[16] = Table 12, 100 mg/kg p.o., control 9.93 ± 0.91

SMILES: CCOc1c(C)c(C)c2c(c1C)CCC(C)(CC(=O)NC(=N)N)O2 (stereo not drawn) [Compound (2), N-(3,4-Dihydro-6-ethoxy-2,5,7,8-tetramethyl-2H-benzopyran-2-yl)acetylguanidine]
- inhibition in vivo at 25 mg/kg [1, 3]: 89%
- Ulcer index (mean ± S.E.) [1, 4]: 0.50 ± 0.34 mm

SMILES: CC(C)=CCOc1c(C)c(C)c2c(c1C)CCC(C)(CC(=O)NC(=N)N)O2 (stereo not drawn) [Compound (3), N-(3,4-Dihydro-6-prenyloxy-2,5,7,8-tetramethyl-2H-benzopyran-2-yl)acetylguanidine]
- inhibition in vivo at 25 mg/kg [1, 3]: 98.7%
- Ulcer index (mean ± S.E.) [1, 4]: 0.14 ± 0.14 mm

SMILES: COc1c(C)c(C)c2c(c1C)CCC(C)(C(=O)NC(=N)N)O2 (stereo not drawn) [Compound (4), N-(3,4-Dihydro-6-methoxy-2,5,7,8-tetramethyl-2H-benzopyran-2-yl)carbonylguanidine]
- inhibition in vivo at 25 mg/kg [1, 3]: 100%
- Ulcer index (mean ± S.E.) [1, 5]: 0.00 ± 0.00 mm

SMILES: COc1c(C)c(C)c2c(c1C)CCC(C)(CCC(=O)NC(=N)N)O2 (stereo not drawn) [Compound (5)]
- inhibition in vivo at 25 mg/kg [1, 3]: 100%
- Ulcer index (mean ± S.E.) [1, 4]: 0.00 ± 0.00 mm

SMILES: COc1ccc2c(c1)CCC(C)(CC(=O)NC(=N)N)O2 (stereo not drawn) [Compound (6), N-(3,4-Dihydro-6-methoxy-2-methyl-2H-benzopyran-2-yl)acetylguanidine]
- inhibition in vivo at 25 mg/kg [1, 3]: 79.1%
- Ulcer index (mean ± S.E.) [1, 5]: 2.03 ± 1.04 mm

SMILES: COc1ccc2c(c1)OC(C)(CC(=O)NC(=N)N)CC2 (stereo not drawn) [Compound (7), N-(3,4-Dihydro-7-methoxy-2-methyl-2H-benzopyran-2-yl)acetylguanidine]
- inhibition in vivo at 12.5 mg/kg [1, 6]: 71.9%
- inhibition in vivo at 25 mg/kg [1, 3]: 84.2%
- Ulcer index (mean ± S.E.) ([1]; Table 5, 12.5 mg/kg p.o., control 11.09 ± 1.49): 3.12 ± 0.66 mm
- Ulcer index (mean ± S.E.) [1, 5]: 1.53 ± 0.66 mm

SMILES: CC1(CC(=O)NC(=N)N)CCc2cc(Cl)ccc2O1 (stereo not drawn) [Compound (8), N-(3,4-Dihydro-6-chloro-2-methyl-2H-benzopyran-2-yl)acetylguanidine]
- inhibition in vivo at 25 mg/kg [1, 3]: 100%
- Ulcer index (mean ± S.E.) [1, 5]: 0.00 ± 0.00 mm

SMILES: CNC(=S)NCCC1(C)CCc2c(C)c(OC)c(C)c(C)c2O1 (stereo not drawn) [Compound (9), N-[2-(3,4-Dihydro-6-methoxy-2,5,7,8-tetramethyl-2H-benzopyran-2-yl)ethyl]-N'-methylthiourea]
- inhibition in vivo at 25 mg/kg [1, 3]: 47.3%
- inhibition in vivo at 50 mg/kg [1, 7]: 95.4%
- Ulcer index (mean ± S.E.) [1, 4]: 5.84 ± 0.75 mm

SMILES: COc1c(C)c(C)c2c(c1C)CCC(C)(CCNC(=N)N)O2 (stereo not drawn) [Compound (10), N-[2-(3,4-Dihydro-6-methoxy-2,5,7,8-tetramethyl-2H-benzopyran-2-yl)ethyl]guanidine]
- inhibition in vivo at 50 mg/kg [1, 7]: 72.6%
- Ulcer index (mean ± S.E.) [1, 8]: 3.04 ± 1.33 mm

SMILES: CNC(=N)NCCC1(C)CCc2c(C)c(OC)c(C)c(C)c2O1 (stereo not drawn) [Compound (11), N-[2-(3,4-Dihydro-6-methoxy-2,5,7,8-tetramethyl-2H-benzopyran-2-yl)ethyl]-N'-methylguanidine]
- inhibition in vivo at 50 mg/kg [1, 7]: 98.2%
- Ulcer index (mean ± S.E.) [1, 8]: 0.20 ± 0.14 mm

SMILES: COc1c(C)c(C)c2c(c1C)CCC(C)(CCN1CCNCC1)O2 (stereo not drawn) [Compound (12), 3,4-Dihydro-6-methoxy-2-[2-(piperazin-1-yl)ethyl]-2,5,7,8-tetramethyl-2H-benzopyran]
- inhibition in vivo at 25 mg/kg ([1]; Rattus norvegicus, po, 1 h, Table 8, 25 mg/kg p.o.): 98.7%
- inhibition in vivo at 50 mg/kg [1, 9]: 100%
- Ulcer index (mean ± S.E.) ([1]; Table 8, 25 mg/kg p.o., control 9.69 ± 1.68): 0.13 ± 0.13 mm
- Ulcer index (mean ± S.E.) [1, 10]: 0.00 ± 0.00 mm

SMILES: COc1c(C)c(C)c2c(c1C)CCC(C)(CCN1CCN(CC=C(C)C)CC1)O2 (stereo not drawn) [Compound (13), 3,4-Dihydro-6-methoxy-2-[2-[4-(3-methyl-2-butenyl)piperazin-1-yl]ethyl]-2,5,7,8-tetramethyl-2H-benzopyran]
- inhibition in vivo at 50 mg/kg [1, 9]: 100%
- Ulcer index (mean ± S.E.) [1, 10]: 0.00 ± 0.00 mm

SMILES: COc1c(C)c(C)c2c(c1C)CCC(C)(CCN1CCN(CC=C(C)CCC=C(C)C)CC1)O2 (stereo not drawn) [Compound (14), 3,4-Dihydro-6-methoxy-2-[2-[4-(3,7-dimethyl-2,6-octadienyl)piperazin-1-yl]ethyl]-2,5,7,8-tetramethyl-2H-benzopyran]
- inhibition in vivo at 50 mg/kg [1, 9]: 100%
- Ulcer index (mean ± S.E.) [1, 10]: 0.00 ± 0.00 mm

SMILES: COc1c(C)c(C)c2c(c1C)CCC(C)(CCN1CCN(CC=C(C)CCC=C(C)CCC=C(C)C)CC1)O2 (stereo not drawn) [Compound (15), 3,4-Dihydro-6-methoxy-2-[2-[4-(3,7,11-trimethyl-2,6,10-dodecatrienyl)piperazin-1-yl]ethyl]-2,5,7,8-tetramethyl-2H-benzopyran]
- inhibition in vivo at 50 mg/kg [1, 9]: 100%
- Ulcer index (mean ± S.E.) [1, 10]: 0.00 ± 0.00 mm

SMILES: COc1cc(CN2CCN(CCC3(C)CCc4c(C)c(OC)c(C)c(C)c4O3)CC2)cc(OC)c1OC (stereo not drawn) [Compound (18), 3,4-Dihydro-6-methoxy-2-[2-[4-(3,4,5-trimethoxybenzyl)piperazin-1-yl]ethyl]-2,5,7,8-tetramethyl-2H-benzopyran]
- inhibition in vivo at 50 mg/kg ([1]; Rattus norvegicus, po, 1 h, Table 10, 50 mg/kg p.o.): 83.2%
- Ulcer index (mean ± S.E.) ([1]; Table 10, 50 mg/kg p.o., control 5.98 ± 1.96): 0.98 ± 0.98 mm

SMILES: COc1c(C)c(C)c2c(c1C)CCC(C)(CCN1CCN(C(=O)c3ccc(N(C)C)cc3)CC1)O2 (stereo not drawn) [Compound (20), 1-[2-(3,4-Dihydro-6-methoxy-2,5,7,8-tetramethyl-2H-benzopyran-2-yl)ethyl]-4-(4-dimethylaminobenzoyl)piperazine]
- Secretory amount (mean ± S.E.) [2]: 8.72 ± 1.45 μg/100 g (body weight of rat)/

SMILES: COc1c(C)c(C)c2c(c1C)CCC(C)(CCN1CCN(C(=O)c3ccc([N+](=O)[O-])cc3)CC1)O2 (stereo not drawn) [Compound (21), 1-[2-(3,4-Dihydro-6-methoxy-2,5,7,8-tetramethyl-2H-benzopyran-2-yl)ethyl]-4-(4-nitrobenzoyl)piperazine]
- Secretory amount (mean ± S.E.) [2]: 5.89 ± 0.40 μg/100 g (body weight of rat)/

SMILES: COc1c(C)c(C)c2c(c1C)CCC(C)(CCN1CCN(C(=O)c3ccc(Br)cc3)CC1)O2 (stereo not drawn) [Compound (22), 1-[2-(3,4-Dihydro-6-methoxy-2,5,7,8-tetramethyl-2H-benzopyran-2-yl)ethyl]-4-(4-bromobenzoyl)piperazine]
- Secretory amount (mean ± S.E.) [2]: 6.26 ± 0.32 μg/100 g (body weight of rat)/

SMILES: COc1c(C)c(C)c2c(c1C)CCC(C)(CCN1CCN(C(=O)c3ccncc3)CC1)O2 (stereo not drawn) [Compound (23), 1-[2-(3,4-Dihydro-6-methoxy-2,5,7,8-tetramethyl-2H-benzopyran-2-yl)ethyl]-4-(4-pyridylcarbonyl)piperazine]
- Secretory amount (mean ± S.E.) [2]: 8.16 ± 1.03 μg/100 g (body weight of rat)/

SMILES: CC(C)=CCOc1ccc(/C=C/C(=O)c2ccc(OCC=C(C)C)cc2OCC(=O)O)cc1 [Sofalcone, 2'-carboxymethoxy-4,4'-bis(3-methyl-2-butenyloxy)calcon, reference compound]
- inhibition in vivo at 25 mg/kg [1, 11]: 25.8%
- inhibition in vivo at 25 mg/kg [1, 3]: 25.8%
- inhibition in vivo at 50 mg/kg [1, 7]: 38.3%
- inhibition in vivo at 50 mg/kg [1, 12]: 38.3%
- inhibition in vivo at 100 mg/kg [1, 13]: 39.8%
- inhibition in vivo at 300 mg/kg ([1]; Rattus norvegicus, po, 1 h, Table 12, 300 mg/kg p.o.): 100%
- Ulcer index (mean ± S.E.) [1, 14]: 7.37 ± 0.54 mm
- Ulcer index (mean ± S.E.) [1, 15]: 6.13 ± 0.91 mm
- Ulcer index (mean ± S.E.) [1, 16]: 5.98 ± 1.04 mm
- Ulcer index (mean ± S.E.) ([1]; Table 12, 300 mg/kg p.o., control 9.93 ± 0.91): 0.00 ± 0.00 mm

SMILES: CC(=O)CCC=C(C)CC/C=C(\C)CC/C=C(\C)CCC=C(C)C [Teprenone, reference compound]
- inhibition in vivo at 25 mg/kg [1, 11]: 78.4%
- inhibition in vivo at 12.5 mg/kg [1, 6]: 33.8%
- inhibition in vivo at 25 mg/kg [1, 3]: 78.4%
- inhibition in vivo at 50 mg/kg [1, 12]: 91.4%
- inhibition in vivo at 100 mg/kg [1, 13]: 96.3%
- Ulcer index (mean ± S.E.) [1, 14]: 2.15 ± 1.26 mm
- Ulcer index (mean ± S.E.) [1, 15]: 0.85 ± 0.61 mm
- Ulcer index (mean ± S.E.) [1, 16]: 0.37 ± 0.37 mm
